Activity calls are given as the source filed them.
Tests used:
Cytochrome P450 2C19 = Cytochrome P450 2C19 (Homo sapiens, UniProt P33261); experiment: Cytochrome panel assay with activity outcomes. Panel member name: p450-cyp2c19 Compounds with AC50 equal or less than 10 uM are considered active; assay type: functional; settings: read-out: AC50
Cytochrome P450 2C9 = Cytochrome P450 2C9 (Homo sapiens, UniProt P11712)
Cytochrome P450 3A4 = Cytochrome P450 3A4 (Homo sapiens, UniProt P08684);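 also: CYP3A4 tested as one member of a cytochrome P450 panel screen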
Sequence of Cytochrome P450 3A4 (P08684 whole entry): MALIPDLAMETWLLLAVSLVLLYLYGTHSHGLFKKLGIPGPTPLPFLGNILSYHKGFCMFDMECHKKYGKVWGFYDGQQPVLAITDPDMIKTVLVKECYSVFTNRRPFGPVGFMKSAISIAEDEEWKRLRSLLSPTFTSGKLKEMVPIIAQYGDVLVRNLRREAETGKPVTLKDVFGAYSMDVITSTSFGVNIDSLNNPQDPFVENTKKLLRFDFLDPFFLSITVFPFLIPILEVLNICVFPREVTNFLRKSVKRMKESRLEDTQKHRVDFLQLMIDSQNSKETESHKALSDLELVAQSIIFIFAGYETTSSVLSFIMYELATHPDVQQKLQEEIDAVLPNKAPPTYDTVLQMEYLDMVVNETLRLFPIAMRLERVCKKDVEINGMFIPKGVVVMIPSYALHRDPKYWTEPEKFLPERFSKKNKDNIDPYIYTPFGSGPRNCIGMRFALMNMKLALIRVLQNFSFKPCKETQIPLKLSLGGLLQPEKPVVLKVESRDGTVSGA

[1] = NIH3T3 cell viability loss – ATP luminescence, mouse fibroblasts, counter-screen, dose response (AID 2010); assay type: functional, cell-based;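 also: cells exposed to compound for about 90 hours before reading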
[2] = NIH-3T3 fibroblast cytotoxicity, dose response, cytotoxicity control, cell-based, fluorescence, Alamar Blue, secondary assay (AID 2327); assay type: functional;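 also: NIH-3T3 mouse fibroblasts cultured with fluconazole at 8 µg/mL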
[3] = Trypanosoma cruzi growth suppression in host cells – NIH3T3 host cells, beta-gal luminescence, confirmation (AID 2044); assay type: functional, cell-based;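 also: intracellular parasites grown in NIH/3T3 mouse fibroblasts as host cells; luminescent beta-galactosidase reporter signal from transgenic T. cruzi replicating inside host cells; inhibitors lower the luminescence signal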
[4] = fluconazole-exposed Candida albicans growth modulators – fluorescence, retest, confirmation (AID 2467); assay type: functional, cell-based
[5] = target: FAD-linked sulfhydryl oxidase ALR (Homo sapiens, UniProt P55789); experiment: ALR-catalysed DTT oxidation blockers – biochemical, H2O2 detection, luminescence, cherry-pick, dose response (AID 493248)
Sequence of FAD-linked sulfhydryl oxidase ALR (P55789 whole entry): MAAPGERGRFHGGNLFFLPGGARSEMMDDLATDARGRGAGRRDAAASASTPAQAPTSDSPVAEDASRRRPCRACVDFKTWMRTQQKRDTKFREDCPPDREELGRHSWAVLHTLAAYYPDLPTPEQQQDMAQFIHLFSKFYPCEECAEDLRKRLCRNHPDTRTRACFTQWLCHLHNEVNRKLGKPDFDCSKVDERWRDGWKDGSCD

Cytochrome P450 2D6 = Cytochrome P450 2D6 (Homo sapiens, UniProt P10635);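 also: CYP2D6 member of a cytochrome P450 panel assay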
Sequence of Cytochrome P450 2D6 (P10635 whole entry): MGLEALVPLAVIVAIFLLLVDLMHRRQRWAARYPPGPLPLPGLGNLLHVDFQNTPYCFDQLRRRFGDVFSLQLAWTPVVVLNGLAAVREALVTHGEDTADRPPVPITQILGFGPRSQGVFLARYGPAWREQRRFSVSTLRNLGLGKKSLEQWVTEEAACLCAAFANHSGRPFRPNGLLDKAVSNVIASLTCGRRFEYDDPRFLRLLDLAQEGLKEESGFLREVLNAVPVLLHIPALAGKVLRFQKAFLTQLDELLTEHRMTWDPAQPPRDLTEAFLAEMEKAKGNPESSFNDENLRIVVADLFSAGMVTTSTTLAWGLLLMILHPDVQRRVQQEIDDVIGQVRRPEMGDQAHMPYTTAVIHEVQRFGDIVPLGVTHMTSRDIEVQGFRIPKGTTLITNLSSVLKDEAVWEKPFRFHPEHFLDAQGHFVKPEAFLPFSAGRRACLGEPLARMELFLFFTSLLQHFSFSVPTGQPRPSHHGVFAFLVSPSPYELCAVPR

[6] = viability of uninfected HEp-2 cells – cell-based, HTS, cytotoxicity control for RSV inhibitor project, dose response (AID 2410); assay type: functional; settings: human respiratory syncytial virus
INS1 = experiment: INS-1E survival protection against cytokine death – cell-based, luminescence, retest, dose response (AID 449756); assay type: functional; settings: Rattus norvegicus;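 also: cell death triggered by IL-1 beta plus TNF-alpha plus IFN-gamma mixture; protective hits raise ATP signal compared with cytokine alone wells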
[7] = test system: Streptococcus sp. 'group A'; experiment: Streptococcus pyogenes SK(-)GAS viability under kanamycin – luminescence, BacTiterGlo, confirmation, counter-screen for streptokinase expression inhibitor project, dose response (AID 1900); assay type: functional, organism-based
Streptococcus = experiment: GAS UMAA2166 growth inhibition – luminescence, BacTiterGlo, counter-screen for streptokinase expression inhibitor project, dose response (AID 1915); assay type: functional, organism-based;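 also: potency for reduction of bacterial viability or growth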
Streptokinase A = target: T1, Streptokinase A (Streptococcus pyogenes serotype M1, UniProt P10520); experiment: viability-normalized secreted streptokinase activity reduction – plasminogen activation absorbance, OD405, dose response (AID 1914); assay type: functional, Streptococcus pyogenes M1 GAS;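 also: secreted streptokinase activity via plasminogen activation per viability signal from cell pellet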
T1 sequence (P10520 whole entry): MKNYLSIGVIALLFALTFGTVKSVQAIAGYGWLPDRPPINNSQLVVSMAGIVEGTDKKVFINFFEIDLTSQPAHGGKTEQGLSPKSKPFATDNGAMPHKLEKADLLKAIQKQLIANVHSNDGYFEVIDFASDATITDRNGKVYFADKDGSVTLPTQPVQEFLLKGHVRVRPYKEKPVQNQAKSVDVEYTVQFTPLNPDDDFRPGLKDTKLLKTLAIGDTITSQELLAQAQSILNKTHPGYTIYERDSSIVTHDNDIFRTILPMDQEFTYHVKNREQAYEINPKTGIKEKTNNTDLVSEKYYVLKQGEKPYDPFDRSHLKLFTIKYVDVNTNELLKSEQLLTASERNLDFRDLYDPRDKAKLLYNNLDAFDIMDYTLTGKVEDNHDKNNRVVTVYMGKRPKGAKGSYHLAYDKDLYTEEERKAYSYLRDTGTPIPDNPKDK

[8] = Luminescence Cell-Based Dose Confirmation HTS to Identify Inhibitors of Platelet Dense Granule Release. [Related pubchem assays: 1663 (Primary HTS), 1678 (Summary of Project)]; assay type: functional
[9] = target: T2, Heat shock factor protein 1 (Mus musculus, UniProt P38532); experiment: enhancement of HSF1-driven luciferase signal – cell-based, NIH3T3, luminescence, dose retest, confirmation (AID 435004); assay type: functional;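 also: stress induced by proteasome inhibitor MG132 added 30 min after compound; luciferase reporter driven by HSF1 response element in NIH3T3 cells; actives raise luminescence as potentiators of the MG132 stress response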
T2 sequence (P38532 whole entry): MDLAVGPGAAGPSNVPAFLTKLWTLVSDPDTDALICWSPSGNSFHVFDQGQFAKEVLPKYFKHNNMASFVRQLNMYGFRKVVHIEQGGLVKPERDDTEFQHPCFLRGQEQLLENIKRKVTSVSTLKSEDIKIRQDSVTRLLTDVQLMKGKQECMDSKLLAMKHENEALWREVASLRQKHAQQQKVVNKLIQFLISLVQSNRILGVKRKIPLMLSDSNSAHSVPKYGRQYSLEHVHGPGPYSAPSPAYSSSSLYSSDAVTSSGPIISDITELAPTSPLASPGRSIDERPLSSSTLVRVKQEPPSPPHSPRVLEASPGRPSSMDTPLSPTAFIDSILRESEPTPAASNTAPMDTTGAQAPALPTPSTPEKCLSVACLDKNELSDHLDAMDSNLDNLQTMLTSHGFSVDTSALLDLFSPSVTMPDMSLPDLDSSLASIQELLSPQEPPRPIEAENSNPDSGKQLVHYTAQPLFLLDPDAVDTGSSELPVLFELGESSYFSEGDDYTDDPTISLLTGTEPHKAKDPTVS

[10] = target: Luciferin 4-monooxygenase (Photinus pyralis, UniProt P08659); experiment: inhibition of purified Photinus pyralis luciferase – biochemical, luminescence, dose response (AID 1891)
Sequence of Luciferin 4-monooxygenase (P08659 whole entry): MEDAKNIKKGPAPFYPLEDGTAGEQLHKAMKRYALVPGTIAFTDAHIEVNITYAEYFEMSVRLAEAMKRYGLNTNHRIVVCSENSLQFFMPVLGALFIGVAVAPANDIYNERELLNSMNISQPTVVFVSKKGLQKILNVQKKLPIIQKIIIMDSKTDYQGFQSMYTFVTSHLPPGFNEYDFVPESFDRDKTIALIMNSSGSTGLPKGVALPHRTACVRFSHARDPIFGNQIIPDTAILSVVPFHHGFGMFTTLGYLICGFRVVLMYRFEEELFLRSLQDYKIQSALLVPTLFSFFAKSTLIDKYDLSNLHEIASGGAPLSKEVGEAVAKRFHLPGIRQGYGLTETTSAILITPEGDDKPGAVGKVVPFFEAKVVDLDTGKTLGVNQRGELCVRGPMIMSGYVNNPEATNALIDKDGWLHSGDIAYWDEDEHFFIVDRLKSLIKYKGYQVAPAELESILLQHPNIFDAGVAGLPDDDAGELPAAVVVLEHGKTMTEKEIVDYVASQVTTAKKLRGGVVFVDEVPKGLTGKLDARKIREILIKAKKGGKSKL

Cytochrome P450 1A2 = target: T3, Cytochrome P450 1A2 (Homo sapiens, UniProt P05177);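 also: PubChem cytochrome P450 panel assay, CYP1A2 panel member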
T3 sequence (P05177 whole entry): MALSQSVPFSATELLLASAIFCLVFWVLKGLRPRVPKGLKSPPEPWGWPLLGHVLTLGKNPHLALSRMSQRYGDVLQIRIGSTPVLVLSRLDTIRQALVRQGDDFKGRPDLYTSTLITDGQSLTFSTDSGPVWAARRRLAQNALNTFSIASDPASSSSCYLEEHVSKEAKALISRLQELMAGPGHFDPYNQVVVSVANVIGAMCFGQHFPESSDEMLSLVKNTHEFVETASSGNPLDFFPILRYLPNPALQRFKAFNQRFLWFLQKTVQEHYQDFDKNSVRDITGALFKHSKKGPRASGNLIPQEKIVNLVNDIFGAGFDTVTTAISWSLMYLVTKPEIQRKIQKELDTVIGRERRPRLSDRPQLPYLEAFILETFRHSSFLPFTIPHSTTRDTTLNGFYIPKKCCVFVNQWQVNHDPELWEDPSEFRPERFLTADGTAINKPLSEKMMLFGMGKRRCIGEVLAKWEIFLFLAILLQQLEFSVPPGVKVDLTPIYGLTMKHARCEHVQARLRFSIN

Sequence of Cytochrome P450 2C19 (P33261 whole entry): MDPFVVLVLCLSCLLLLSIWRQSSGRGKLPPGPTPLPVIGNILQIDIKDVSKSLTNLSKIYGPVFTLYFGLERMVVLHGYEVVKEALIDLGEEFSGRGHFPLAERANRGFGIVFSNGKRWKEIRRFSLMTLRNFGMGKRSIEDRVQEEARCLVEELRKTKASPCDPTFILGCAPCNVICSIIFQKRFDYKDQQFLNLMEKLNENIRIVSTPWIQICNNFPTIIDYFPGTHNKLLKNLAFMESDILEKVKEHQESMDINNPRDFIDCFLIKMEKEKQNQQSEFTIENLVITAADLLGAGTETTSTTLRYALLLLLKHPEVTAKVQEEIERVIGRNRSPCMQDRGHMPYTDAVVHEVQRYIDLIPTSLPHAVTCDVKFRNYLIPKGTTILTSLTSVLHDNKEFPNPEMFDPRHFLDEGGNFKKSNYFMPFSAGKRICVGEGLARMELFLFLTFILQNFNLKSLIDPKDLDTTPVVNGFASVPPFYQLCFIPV
Sequence of Cytochrome P450 2C9 (P11712 whole entry): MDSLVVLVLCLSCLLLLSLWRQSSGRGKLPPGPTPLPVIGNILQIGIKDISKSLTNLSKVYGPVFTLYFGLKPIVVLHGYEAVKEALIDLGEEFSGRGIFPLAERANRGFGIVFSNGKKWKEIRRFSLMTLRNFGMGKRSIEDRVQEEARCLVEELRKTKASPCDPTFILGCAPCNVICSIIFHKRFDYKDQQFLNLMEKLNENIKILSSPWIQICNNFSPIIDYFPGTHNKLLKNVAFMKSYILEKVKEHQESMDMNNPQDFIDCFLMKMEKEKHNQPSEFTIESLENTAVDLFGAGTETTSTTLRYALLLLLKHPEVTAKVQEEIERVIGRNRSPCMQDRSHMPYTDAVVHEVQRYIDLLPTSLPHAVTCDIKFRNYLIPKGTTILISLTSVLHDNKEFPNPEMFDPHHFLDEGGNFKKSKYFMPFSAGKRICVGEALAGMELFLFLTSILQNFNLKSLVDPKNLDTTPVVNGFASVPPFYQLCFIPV

In the case of `CCN1CCCC1CNC(=O)C1c2cc(OC)c(OC)cc2C(=O)N(C)C1c1cccnc1` (centres undefined), the AC50 (Cytochrome P450 2C19) is reported as 1.12 µM (inconclusive), the AC50 (Cytochrome P450 2C9) is reported as 1.78 µM (inconclusive) and the AC50 (Cytochrome P450 3A4) is reported as 5.62 µM (inconclusive).
For `O=C(NCc1cccnc1)c1ccc(-c2cccc(Cl)c2Cl)o1`, the EC50 [1] was > 60 µM (not active), the EC50 [2] was > 38 µM (inactive) and the EC50 [3] was 0.92 µM (active). For the same compound, the EC50 [4] was > 38 µM (not active).
With `COc1ccc(Br)cc1C(=O)Nc1ccc(O)cc1` the AC50 [5] was 2.75 µM (active).
In the case of `COc1nc(Oc2ccc(/C=N/O)cc2)nc(N(C)C)n1`, the AC50 (Cytochrome P450 2C19) is reported as 17.8 µM (inconclusive), the AC50 (Cytochrome P450 2D6) is reported as 22.4 µM (inconclusive) and the AC50 [5] is reported as 2.99 µM (active).
For `COc1ccc(N2CCN(C(CNC(C)=O)c3ccc4c(c3)OCO4)CC2)cc1` (centres undefined), the AC50 [5] was 4.58 µM (active).
With `Cc1cc(O)nc2c(C)cc(S(=O)(=O)Nc3ccc(O)cc3)cc12` the AC50 [5] was 1.3 µM (active).
With `COc1ccc(CN(C(=O)CSc2nnc(-c3ccccc3F)o2)c2ccc(F)cc2)cc1` the CC50 [6] was 23.1 µM (active).
In the case of `Cc1ccc(O)c(NC(=O)C2CCCN2C(=O)OCc2ccccc2)c1` (centres undefined), the AC50 [5] is reported as 8.89 µM (active).
For `Cc1ccc(/C=C/c2onc(C)c2S(=O)(=O)N2CCC(C(=O)N3CCCCC3)CC2)cc1`, the CC50 [6] was > 50 µM (active).
For `CNC(=O)[C@H]1O[C@H](n2cnc3c(NCc4cccc(I)c4)ncnc32)[C@@H](O)[C@@H]1O`, the AC50 (Cytochrome P450 3A4) was 31.6 µM (inconclusive).
With `O=C(CN1CCN(S(=O)(=O)c2ccccc2)CC1)Nc1ccc2c(c1)CCC2` the EC50 [2] was > 150 µM (inactive) and the EC50 [4] was > 38 µM (not active).
With `Cc1[nH]c2ccccc2c1/C=N/O` the AC50 [5] was 20.2 µM (active).
In the case of `N#Cc1cccc(NC(=O)N2CC[C@@]3(CCCN(C(=O)c4ccco4)C3)C2)c1`, the AC50 (Cytochrome P450 3A4) is reported as 20 µM (inconclusive).
In the case of `CCn1c(N=NO)nc2ccccc21`, the EC50 [2] is reported as 21.9 µM (active), the EC50 [4] is reported as > 38 µM (not active) and the AC50 (INS1) is reported as 1.83 µM (active).
In the case of `CC1(c2ccccc2)CC(C)(C)N(C(=O)CSc2nnc(N)s2)c2ccccc21` (centres undefined), the CC50 [6] is reported as 22.9 µM (active).
In the case of `COc1ccccc1-c1ccc2ncnc(NCc3cnc(C)cn3)c2c1`, the AC50 (Cytochrome P450 2C19) is reported as 39.8 µM (inconclusive), the AC50 (Cytochrome P450 2D6) is reported as 39.8 µM (inconclusive) and the AC50 (Cytochrome P450 3A4) is reported as 10 µM (inconclusive).
With `NC(=O)NC(=O)CSc1nnc(-c2ccco2)n1Cc1ccccc1` the AC50 (Cytochrome P450 2C9) was 12.6 µM (inconclusive) and the AC50 (Cytochrome P450 3A4) was 25.1 µM (inconclusive).
In the case of `Cc1ccc(S(=O)(=O)NNC(=O)c2ccc(NC(=O)C3CC3)cc2)cc1`, the EC50 [2] is reported as > 150 µM (inactive) and the EC50 [4] is reported as 12.7 µM (active).
For `NC(=NO)c1cn(Cc2ccccc2Cl)c2ccccc12`, the AC50 [5] was 0.488 µM (active).
With `CC(C)(C)C1CCC(OC(=O)C[N+]2(C)CCCCC2)CC1` (centres undefined) the EC50 [2] was 18.1 µM (active) and the EC50 [4] was > 38 µM (not active).
In the case of `NC(=O)C1=C[C@@H](c2csc3ccccc23)C[C@@H](OCc2ccc(CO)cc2)O1`, the CC50 [6] is reported as 15.5 µM (active).
For `CCOc1ccc2nc(O)c(O)nc2c1`, the CC50 [6] was 45.8 µM (active).
In the case of `CCc1cc2c(nc1CC)CCN(CC/C(C)=N/OC)C2`, the AC50 (Cytochrome P450 2D6) is reported as 3.16 µM (inconclusive) and the AC50 (Cytochrome P450 3A4) is reported as 3.16 µM (inconclusive).
With `Cc1oncc1-c1csc(-c2ccccc2)n1` the CC50 [6] was 36.5 µM (active).
For `O=C(NCCc1ccccc1)C(=O)NCC1(c2ccccc2)CCCC1`, the AC50 (Cytochrome P450 2C19) was 39.8 µM (inconclusive) and the AC50 (Cytochrome P450 3A4) was 3.16 µM (inconclusive).
For `N=c1ccn(Cc2ccc(Cl)cc2Cl)cc1`, the AC50 (INS1) was 7.25 µM (active).
For `COc1ccccc1N1CCN(Cc2nc(N)nc(Nc3ccc(C)c(Cl)c3)n2)CC1`, the EC50 [7] was 10.7 µM (active), the CC50 [6] was 19.6 µM (active) and the EC50 (Streptococcus) was 20.4 µM (active). For the same compound, the EC50 (Streptokinase A) was > 150 µM (inconclusive).
For `CCOc1cc(S(=O)(=O)NCc2ccccc2)c(OCC)cc1-n1cnnn1`, the EC50 [2] was > 150 µM (inconclusive) and the EC50 [4] was 3.34 µM (active).
With `c1ccc2c(C3=NN=C(NC4CC4)SC3)c[nH]c2c1` the EC50 [8] was 20.2 µM (active), the EC50 [9] was > 260 µM (inactive) and the EC50 [10] was > 112 µM (not active).
In the case of `CCCCC(=O)OCc1cn(-c2ccc(Cl)cc2)nn1`, the AC50 (Cytochrome P450 2C19) is reported as 2.24 µM (inconclusive), the AC50 (Cytochrome P450 2D6) is reported as 25.1 µM (inconclusive) and the AC50 (Cytochrome P450 3A4) is reported as 39.8 µM (inconclusive).
With `Cc1cc(Cl)ccc1NNC(=O)c1snnc1C` the EC50 [2] was 16.8 µM (inconclusive) and the EC50 [4] was 1.59 µM (active).
In the case of `CCN(CCNC(=O)c1ccc(C#N)cc1)c1cccc(C)c1`, the AC50 [5] is reported as 1.75 µM (active).
With `COc1ccc(-c2cc(CCCC(=O)NCCc3ccc(OC)cc3OC)no2)cc1` the EC50 [9] was > 260 µM (inactive), the AC50 (Cytochrome P450 2C19) was 1.41 µM (active) and the AC50 (Cytochrome P450 2D6) was 1.12 µM (active). For the same compound, the AC50 (Cytochrome P450 2C9) was 0.562 µM (active) and the AC50 (Cytochrome P450 1A2) was 0.562 µM (active).
With `CS(=O)(=O)N(CC(=O)Nc1c(F)cccc1F)c1ccc(C23CC4CC(CC(C4)C2)C3)cc1` the EC50 [1] was 10.6 µM (active), the AC50 (Cytochrome P450 2D6) was 4.47 µM (inconclusive) and the EC50 [3] was 2.25 µM (active). The AC50 (Cytochrome P450 3A4) was 15.8 µM (inconclusive).
In the case of `CCc1ccc(NC(=O)CN2C(=O)CSC2=O)cc1`, the AC50 [5] is reported as 1.2 µM (active).
With `CCN(CC)c1cccc(OC2=NS(=O)(=O)c3ccccc32)c1` the EC50 [2] was > 150 µM (inactive) and the EC50 [4] was 5.06 µM (active).
For `COc1ccc(OC)c(C(c2nnnn2C2CCCC2)N2CCc3ccccc3C2)c1` (centres undefined), the CC50 [6] was 24 µM (active).
In the case of `COc1ccc(Br)cc1/C=N/Nc1ccc(Cl)c(C(=O)O)c1`, the AC50 [5] is reported as 6.26 µM (active).
For `CCCn1c(=N)n(CC(=O)c2ccco2)c2ccccc21`, the AC50 (Cytochrome P450 3A4) was 35.5 µM (inconclusive) and the AC50 (Cytochrome P450 1A2) was 10 µM (inconclusive).

Reference: ChEMBL document CHEMBL1201862, “PubChem BioAssay data set” (2004)
